In patent US20030225003A1, “Antimicrobial therapeutic compositions for oral and topical use” (priority 2002, published 2003):
“Also recorded” adds a separate entry of the source.

What was measured:
diarrhea = experiment: Effect of menthocarvol capsules on patients with diarrhea; type: in vivo, human; details: for time to complete recovery: with oral rehydration
Protocol: (§1) In one embodiment menthocarvol was made by reacting carvacrol with hydrogen under a nitrogen atmosphere in the presence of platinum, as a catalyst, to form menthocarvol. The menthocarvol was administered orally as capsules and topically as ointments to human volunteers to establish that the preliminary preferred formulation functioned to cure specific disease conditions.
Four human subjects were selected for this study with menthocarvol. In this study, the diarrhea symptoms were likely, from either acute bacterial infectous causes or food poisoning. The menthocarvol was administered orally in the form of capsules. Each 500 mg capsule contained 35 mg of the active ingredient. The therapy for each subject was usually oral administration of two 500 mg capsules.

chronic fatigue syndrome = experiment: Effect of menthocarvol (oral capsule or topical ointment) on chronic fatigue; type: in vivo, human
Protocol: as §1
The presence of bacteria ([…]), parasites (entamoeba gingivalis, or trichomonas tenax) and/or fungi (Candida, or Aspergillus species) in the mouth, nose, or sinus cavities is often accompanied by a history of generalized malaise, fatigue, and frequent headaches, frequently referred to as general fatigue syndrome. Laboratory testing for pathogens is usually negative. People suffering from fatigue syndrome typically function at a substantially lower level of activity than they were capable of before the onset of fatigue symptoms. Fatigue is not improved by bed rest and may be exacerbated by physical or mental activity. Moreover, the presence of some microorganisms in the stomach (i.e. Helicobacter pylori) and bowels, especially in diverticulas (outpouchings of the intestinal mucosa), is often accompanied by malaise and headache.
In the United States, colonic diverticula occurs in approximately 50% of individuals older than 60 years of age. Treatment with menthocarvol of volunteers suffering from this chronic fatigue syndrome was conducted. The menthocarvol therapy was administered in an oral dose of a single 250 mg capsule (17.5 mg active ingredient) or 500 mg capsule (35 mg active ingredient). Two of the subjects, who had localized pain in an extremity, were treated topically with menthocarvol in an ointment (3% active ingredient in lanolin oil). A total of six active individuals complaining of fatigue syndrome participated in this study.

periodontal disease = experiment: Effect of orally applied menthocarvol solution on periodontal disease; type: in vivo, human
Protocol: A study on three subjects was performed to test the effectiveness of orally applied ointments containing menthocarvol to treat periodontal disease in humans. The preliminary formulation used was first was a 3% solution of menthocarvol followed by treatment with a 0.6% solution, administered twice a week for three months. The treatment was given with a syringe and applied orally to the affected areas between the teeth at the gum line. […] This phenomenon disappeared in approximately two hours.

[1] = cited from earlier work
[2] = four patients, two 500 mg capsules orally
[3] = six individuals, oral and topical formulations

Structure (SMILES) | time to complete recovery (diarrhea; Case 3, two 500 mg capsules orally) | cure of diarrhea, all four patients (diarrhea; [2]) | unpleasant or adverse side effects (diarrhea; [2]) | time to complete recovery (diarrhea; single cases, two 500 mg capsules orally) | effect on fatigue syndrome symptoms (chronic fatigue syndrome; Case 4, oral 500 mg capsule (35 mg active ingredient) after breakfast for five days) | effect on fatigue syndrome symptoms (chronic fatigue syndrome; single cases, oral 250 mg capsule (17.5 mg active ingredient) after breakfast for five or ten days) | adverse side effects (chronic fatigue syndrome; single cases, oral 250 mg or 500 mg capsule after breakfast for five days) | effect on localized pain in an extremity (chronic fatigue syndrome; single cases, topical cream, 3% active ingredient in lanolin oil, applied before exercise) | effect on fatigue and pain, all cases (chronic fatigue syndrome; [3]) | unpleasant or adverse side effects, all subjects (chronic fatigue syndrome; [3]) | local side effect (tingling sensation) (periodontal disease; 0.6% solution) | infection and observable periodontal disease (periodontal disease; 0.6% solution only, same three patients) | local side effect on gums and tongue (periodontal disease; 3% solution) | necrotic effect on the epithelial cells lining the mouth cavity (periodontal disease; 3% solution) | time until the tingling sensation disappeared (periodontal disease; 3% solution) | inflammation of gums (periodontal disease; 3% solution applied at the gum line, three patients) | solubility in lipids [1]
CC(C)C1CCC(C)C(O)C1 (stereo not drawn) [menthocarvol, hexahydrocarvacrol] | 24 h | the diarrhea was cured quickly | None of the patients reported unpleasant or adverse side effects | three and two | the fatigue and muscle soreness disappeared | the symptoms of malaise and unrefreshing sleep disappeared; also recorded: The sore throat and pain disappeared after five days of treatment; also recorded: the symptoms of fatigue and headache were relieved | No adverse side effects were reported; also recorded: No adverse side affects were reported | The signs of leg and foot muscle fatigue disappeared after the tenth treatment; also recorded: The pain and swelling was significantly reduced after six applications | positive effects on the fatigue and pain | No subjects complained of unpleasant or adverse side effects | This side effect was not observed | some improvement | a temporary tingling sensation on the gums | no observable necrotic effect | approximately two | a marked improvement in the inflammation of their gums was observed | 
CC1CCC(C(C)C)C(O)C1 (stereo not drawn) [menthol, 1-Methyl-4-isopropyl cyclohexane-3-ol, reference compound] |  |  |  |  |  |  |  |  |  |  |  |  |  |  |  |  | soluble in lipids
Cc1ccc(C(C)C)cc1O [carvacrol, 5-isopropyl-2-methylphenol] |  |  |  |  |  |  |  |  |  |  |  |  |  |  |  |  | soluble in lipids
